US20170273922A1, “UREA AND BIS-UREA BASED COMPOUNDS AND ANALOGUES THEREOF USEFUL IN THE TREATMENT OF ANDROGEN RECEPTOR MEDIATED DISEASES OR DISORDERS” (THE ROYAL INSTITUTION FOR THE ADVACEMENT OF LEARNING/MCGILL …, priority 2014, published 2017)
“Also recorded” adds a separate entry of the source.

Assays:
LNCaP cells = assay: MTT assay (cytotoxicity), LNCaP cells; type: cell-based
In short: (§1)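 Cells grown in RPMI 1640 with 10% FBS were seeded at 6-7×10^3 per well, left overnight, then exposed to test compounds at designated concentrations or DMSO vehicle for 72 h in fresh medium. Viability was read by MTT; triplicates, repeated at least twice.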

22Rv1 cells = assay: MTT assay (cytotoxicity), 22Rv1 cells; type: cell-based
In short: as §1

DU145 cells = assay: MTT assay (cytotoxicity), DU145 cells; type: cell-based; details: 72 h
In short: as §1

H1975 cells = assay: MTT assay (cytotoxicity), H1975 cells; type: cell-based; details: 72 h treatment, Table 6.1
Procedure: (§2) MTT assays: LNCaP, 22Rv1, Du145, H1975, A549, MB231 and MCF-7 cells are maintained in RPMI 1640 supplemented with 10% FBS. Cells were seeded at a density of 6-7×10^3 cells per well in 96-well plates. After overnight incubation, cells in fresh RPMI 1640 supplemented with 10% FBS were exposed to DMSO vehicle control or test compounds at designated concentrations for 72 h. Viable cells were evaluated by MTT assays. Experiments were performed in triplicate and repeated at least twice.

A549 cells = assay: MTT assay (cytotoxicity), A549 cells; type: cell-based; details: 72 h treatment, Table 6.1
Procedure: as §2

MB231 cells = assay: MTT assay (cytotoxicity), MB231 cells; type: cell-based; details: 72 h treatment, Table 6.1
Procedure: as §2

MCF-7 cells = assay: MTT assay (cytotoxicity), MCF-7 cells; type: cell-based; details: 72 h treatment, Table 6.1
Procedure: as §2

[1] = tested on: liver hepatocellular carcinoma; assay: MTT assay (72 h), liver hepatocellular carcinoma cell line of Table 6.1; type: cell-based; details: HepG2 cells, 72 h treatment, read-out: Cytotoxicity (IC50, μM) HepG2
IRF3DBD-AR(1-547) = target: T1, IRF3DBD-AR(1-547) (Homo sapiens, UniProt P10275); assay: IRF3DBD-AR(1-547) ISRE-luc reporter assay; type: cell-based; details: PC3 cells, 24 h
T1 construct: IRF3-AR(1-547) is the fusion of IRF3 DBD with the AR NTD (1-547); expressed in transfected cells
T1 sequence (P10275 1-547): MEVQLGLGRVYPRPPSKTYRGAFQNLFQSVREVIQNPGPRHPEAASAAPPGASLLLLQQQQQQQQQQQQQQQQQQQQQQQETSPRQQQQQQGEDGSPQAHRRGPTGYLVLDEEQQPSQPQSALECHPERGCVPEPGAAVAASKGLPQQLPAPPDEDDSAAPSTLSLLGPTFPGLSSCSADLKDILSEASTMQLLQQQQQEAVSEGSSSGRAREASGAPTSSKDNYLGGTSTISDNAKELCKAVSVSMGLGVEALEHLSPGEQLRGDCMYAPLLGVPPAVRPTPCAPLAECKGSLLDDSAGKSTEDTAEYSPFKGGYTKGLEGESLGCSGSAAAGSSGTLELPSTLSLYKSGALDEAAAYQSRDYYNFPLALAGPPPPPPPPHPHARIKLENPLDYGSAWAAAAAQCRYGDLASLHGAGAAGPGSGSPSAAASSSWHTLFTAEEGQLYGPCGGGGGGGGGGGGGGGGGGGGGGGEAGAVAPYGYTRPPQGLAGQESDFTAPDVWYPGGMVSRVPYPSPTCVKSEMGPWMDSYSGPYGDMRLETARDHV

full-length IRF3 = target: T2, full-length IRF3 (Homo sapiens, UniProt Q14653); assay: Full-length IRF3 ISRE-luc reporter assay; type: cell-based; details: PC3 cells, 24 h
T2 construct: co-transfected with full-length IRF3 or IRF3DBD-AR(1-547) expressing plasmids; expressed in transfected cells
T2 sequence (Q14653 1-427): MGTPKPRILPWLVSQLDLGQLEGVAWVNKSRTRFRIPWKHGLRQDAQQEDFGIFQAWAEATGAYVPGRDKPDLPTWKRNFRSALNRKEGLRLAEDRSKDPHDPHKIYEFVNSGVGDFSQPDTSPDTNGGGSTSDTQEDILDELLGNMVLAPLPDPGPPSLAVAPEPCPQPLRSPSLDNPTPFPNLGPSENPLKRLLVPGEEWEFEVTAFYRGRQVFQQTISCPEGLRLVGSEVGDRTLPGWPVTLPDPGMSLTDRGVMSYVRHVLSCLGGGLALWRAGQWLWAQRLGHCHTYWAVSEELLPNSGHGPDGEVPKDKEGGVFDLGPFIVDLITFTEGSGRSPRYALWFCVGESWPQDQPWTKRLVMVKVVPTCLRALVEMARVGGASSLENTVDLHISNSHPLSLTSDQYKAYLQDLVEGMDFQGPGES
Source text: For all of the others, cells were co-transfected with full-length IRF3 or IRF3DBD-AR(1-547) expressing plasmids and with the ISRE-luc reporter and pRL-TK plasmids. […] As IRF3DBD-AR(1-547) contains the DBD of IRF3, ISRE-luc reporter instead of the PSA-luc reporter was used in our assays.
HEK293 cells were co-transfected with IRF3DBD(1-133) or IRF3DBD-AR(1-547) or IRF3DBD-AR(181-547) or full-length IRF3 expressing plasmids and with the ISRE-luc reporter and the Renilla luciferase pRL-TK plasmids.
Here, IRF3-AR(1-547) is the fusion of IRF3 DBD with the AR NTD (1-547). […] The plasmids expressing IRF3-AR(1-547) (A) or wild-type IRF3 (B) or IRF3 DBD (for NT) as well as ISRE-luc and pRL-TK were transiently transfected into PC3 cells. […] Bic, bicalutamide; EPI, EPI-001.

VP16-AR(507-919) = VP16-AR(507-919) (NTD-deleted) PSA-luc reporter assay; details: 10 nM DHT, 24 h; PC3 or HEK293 cells
[2] = MTT assay (cytotoxicity), LNCaP cells; type: cell-based; details: human, LNCaP cells
In short: as §1

[3] = MTT assay (cytotoxicity), 22Rv1 cells; type: cell-based; details: human, 22Rv1 cells
In short: as §1

[4] = MTT assay (cytotoxicity), DU145 cells; type: cell-based; details: human, DU145 cells, Table 2.4
In short: as §1

[5] = MTT assay (cytotoxicity), H1975 cells; type: cell-based; details: human, 72 h treatment, Table 6.1
Procedure: as §2

[6] = MTT assay (cytotoxicity), A549 cells; type: cell-based; details: human, 72 h treatment, Table 6.1
Procedure: as §2

[7] = MTT assay (cytotoxicity), MB231 cells; type: cell-based; details: human, 72 h treatment, Table 6.1
Procedure: as §2

[8] = MTT assay (cytotoxicity), MCF-7 cells; type: cell-based; details: human, 72 h treatment, Table 6.1
Procedure: as §2

[9] = MTT assay (72 h), liver hepatocellular carcinoma cell line of Table 6.1; type: cell-based; details: human, HepG2 cells (liver hepatocellular carcinoma), 72 h treatment, read-out: Cytotoxicity (IC50, μM) HepG2
AR^v567es = target: T3, AR^v567es (Homo sapiens, UniProt P10275); details: 25 μM; COS-1 cells; cited from earlier work
T3 construct: host or cells: COS-1
T3 sequence (P10275 with tags, fused parts or gaps limits assumed): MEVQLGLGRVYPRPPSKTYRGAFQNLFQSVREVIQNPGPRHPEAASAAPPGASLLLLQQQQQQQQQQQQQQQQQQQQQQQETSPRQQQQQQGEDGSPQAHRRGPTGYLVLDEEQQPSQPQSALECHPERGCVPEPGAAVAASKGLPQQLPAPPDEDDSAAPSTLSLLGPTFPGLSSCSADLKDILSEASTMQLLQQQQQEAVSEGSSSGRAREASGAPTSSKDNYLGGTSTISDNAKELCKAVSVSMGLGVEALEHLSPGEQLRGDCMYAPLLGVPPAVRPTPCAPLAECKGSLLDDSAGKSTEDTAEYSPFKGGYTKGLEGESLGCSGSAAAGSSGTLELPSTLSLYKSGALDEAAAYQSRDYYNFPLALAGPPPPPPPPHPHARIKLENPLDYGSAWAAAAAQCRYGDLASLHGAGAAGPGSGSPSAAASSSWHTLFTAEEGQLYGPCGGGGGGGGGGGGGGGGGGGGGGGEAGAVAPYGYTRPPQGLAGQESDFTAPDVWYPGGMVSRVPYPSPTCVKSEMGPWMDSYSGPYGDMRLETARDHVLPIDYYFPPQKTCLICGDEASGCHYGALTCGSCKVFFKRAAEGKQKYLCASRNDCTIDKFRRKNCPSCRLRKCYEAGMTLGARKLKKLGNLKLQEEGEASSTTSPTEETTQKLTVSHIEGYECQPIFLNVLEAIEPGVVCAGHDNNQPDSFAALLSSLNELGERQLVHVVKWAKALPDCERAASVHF

AR-v7 = target: T4, AR-v7 (Homo sapiens, UniProt P10275); assay: AR-v7-dependent PSA-luc reporter assay in HEK293 cells; details: 25 μM
T4 sequence (P10275 1-644 isoform P10275-3): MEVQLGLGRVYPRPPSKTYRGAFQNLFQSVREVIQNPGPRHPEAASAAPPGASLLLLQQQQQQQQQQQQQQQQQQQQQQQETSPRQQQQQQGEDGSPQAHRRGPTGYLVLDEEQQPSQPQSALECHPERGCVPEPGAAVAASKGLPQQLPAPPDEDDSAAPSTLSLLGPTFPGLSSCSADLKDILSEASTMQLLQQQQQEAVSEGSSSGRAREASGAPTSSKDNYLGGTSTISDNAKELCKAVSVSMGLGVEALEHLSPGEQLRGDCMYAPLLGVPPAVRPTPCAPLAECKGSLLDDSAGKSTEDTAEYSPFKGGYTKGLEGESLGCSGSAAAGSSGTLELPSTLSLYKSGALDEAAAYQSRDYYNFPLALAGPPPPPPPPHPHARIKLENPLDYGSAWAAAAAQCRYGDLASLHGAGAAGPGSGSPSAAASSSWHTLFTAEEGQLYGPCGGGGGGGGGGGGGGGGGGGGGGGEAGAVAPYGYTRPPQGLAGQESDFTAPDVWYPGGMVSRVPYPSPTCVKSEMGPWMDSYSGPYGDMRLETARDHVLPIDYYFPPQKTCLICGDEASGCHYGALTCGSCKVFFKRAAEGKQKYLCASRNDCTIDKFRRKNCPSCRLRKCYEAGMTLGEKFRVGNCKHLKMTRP
Procedure: Cells were exposed to vehicle control or compounds at designated concentrations (μM) for 48 h.

AR-v7 in LNCaP cells = target: T5, AR-v7 in LNCaP cells (Homo sapiens, UniProt P10275); assay: PSA-luc reporter assay in LNCaP cells transiently transfected with pIRES-AR-v7; details: 24 h
T5 sequence (P10275 1-644 isoform P10275-3): T4 sequence (P10275 1-644 isoform P10275-3)
Procedure: NT, LNCaP cells were transiently transfected with pIRES vector, PSA-luc and pRL-TK. […] Cells were then transiently transfected with PSA-Luc and pRL-TK and exposed to DMSO or compounds for 24 h, in triplicate.

[10] = tested on: endogenous AR-Vs in 22Rv1 cells; assay: PSA-luc reporter assay in androgen-starved 22Rv1 cells (endogenous LBD-truncated AR variants); details: androgen-starved 3 days, 24 h exposure
Procedure: NT, LNCaP cells were transiently transfected with pIRES vector, PSA-luc and pRL-TK. […] Cells were then transiently transfected with PSA-Luc and pRL-TK and exposed to DMSO or compounds for 24 h, in triplicate. NT, not transfected with PSA-luc.
The ARs were probed by N-terminal directed AR antibody (N20, Santa Cruz); B) The 22Rv1 cells were androgen-starved (in phenol red-free medium+10% CS-FBS) for 3 days to ensure the full-length AR expressed in 22Rv1 are not activated. The 22Rv1 cells were subsequently co-transfected with PSA-luc and pRL-TK plasmids. […] Cells in phenol red-free medium+10% CS-FBS were exposed to DMSO or compounds for 24 h and harvested for Western blot analysis.
The cells were androgen-starved for 3 days and transfected with PSA-Luc and pRL-TK plasmids. NT, cells were transfected with empty vector. Cells were exposed to vehicle control or compounds for 24 h.

[11] = LNCaP cells, 72 h treatment, Table 6.1
[12] = 22Rv1 cells, 72 h treatment, Table 6.1

## N#Cc1ccc(NC(=O)N/C=C/c2cccc(C(F)(F)F)c2)cc1C(F)(F)F [Compound 410]
LNCaP cells; 72 h, Table 2.2
  IC50: 4.4 µM
LNCaP cells; [11]
  IC50: 1.8 µM
22Rv1 cells; [12]
  IC50: 2.5 µM
DU145 cells; Table 2.2
  IC50: 10.4 µM
H1975 cells
  IC50: 2.5 µM
A549 cells
  IC50: 2.7 µM
MB231 cells
  IC50: 4 µM
MCF-7 cells
  IC50: 2.6 µM
[1]
  IC50: 0.92 µM
IRF3DBD-AR(1-547)
  inhibition of IRF3-AR(1-547)-dependent ISRE-luc reporter activity: potently inhibit
full-length IRF3
  activity against wild-type IRF3 (ISRE-luc): inactive
VP16-AR(507-919)
  inhibition of DHT-induced activation of VP16-AR(507-919) (PSA-luc): inactive

## N#Cc1ccc(NC(=O)N/C=C/c2cccs2)cc1C(F)(F)F [Compound 428]
[2]; 72 h, Table 2.4
  IC50 at 72 h: 2.1 µM
[3]; 72 h, Table 2.4
  IC50 at 72 h: 3.7 µM
[4]
  IC50 at 72 h: 5.1 µM
[5]
  IC50 at 72 h: 7.7 µM
[6]
  IC50 at 72 h: 4.7 µM
[7]
  IC50 at 72 h: 7.6 µM
[8]
  IC50 at 72 h: 5.2 µM
[9]
  IC50 at 72 h: 2.4 µM
IRF3DBD-AR(1-547)
  inhibition of IRF3-AR(1-547)-dependent ISRE-luc reporter activity: potently inhibit
full-length IRF3
  activity against wild-type IRF3 (ISRE-luc): inactive
VP16-AR(507-919)
  inhibition of DHT-induced activation of VP16-AR(507-919) (PSA-luc): inactive

## O=C(N/C=C/c1cc(C(F)(F)F)cc(C(F)(F)F)c1)Nc1cnccn1 [Compound 528]
LNCaP cells; 72 h, Table 2.1
  IC50: 0.12 µM
LNCaP cells; [11]
  IC50: 0.12 µM
22Rv1 cells; [12]
  IC50: < 1 µM
22Rv1 cells; 72 h, Table 2.1
  IC50: < 1 µM
DU145 cells; Table 2.1
  IC50: < 1 µM
IRF3DBD-AR(1-547)
  inhibition of IRF3-AR(1-547)-dependent ISRE-luc reporter activity: potently inhibit
full-length IRF3
  activity against wild-type IRF3 (ISRE-luc): inactive

## O=C(N/C=C/c1cccc(C(F)(F)F)c1)Nc1cnccn1 [Compound 558]
LNCaP cells; 72 h, Table 2.1
  IC50: 0.06 µM
LNCaP cells; [11]
  IC50: 0.06 µM
22Rv1 cells; [12]
  IC50: 0.1 µM
22Rv1 cells; 72 h, Table 2.1
  IC50: 0.1 µM
H1975 cells
  IC50: 2.4 µM
A549 cells
  IC50: 0.09 µM
MB231 cells
  IC50: 0.3 µM
MCF-7 cells
  IC50: < 0.5 µM
[1]
  IC50: 0.14 µM

## O=C(Nc1cccc(C(F)(F)F)c1)Nc1ccc(C(=O)Nc2ccccc2F)c(C(F)(F)F)c1 [Compound 822]
[2]; 72 h treatment, Table 6.1
  IC50 at 72 h: 3 µM
[3]; 72 h treatment, Table 6.1
  IC50 at 72 h: 4 µM
[5]
  IC50 at 72 h: 6.3 µM
[6]
  IC50 at 72 h: 6 µM
[7]
  IC50 at 72 h: 8.1 µM
[8]
  IC50 at 72 h: 4.5 µM
[9]
  IC50 at 72 h: 3.2 µM

## O=C(Nc1cccc(C(F)(F)F)c1)Nc1ccc(F)cc1NC(=O)c1cc(Cl)ccc1F [Compound 968]
IRF3DBD-AR(1-547)
  inhibition of IRF3-AR(1-547)-dependent ISRE-luc reporter activity: potently inhibit
full-length IRF3
  activity against wild-type IRF3 (ISRE-luc): inactive

## O=C(Nc1cccc(Br)c1)Nc1cc(NC(=O)Nc2cccc(C(F)(F)F)c2)cc(C(F)(F)F)c1 [Compound 973]
IRF3DBD-AR(1-547)
  inhibition of IRF3-AR(1-547)-dependent ISRE-luc reporter activity: potently inhibit
full-length IRF3
  activity against wild-type IRF3 (ISRE-luc): inactive

## CC(C)(c1ccc(OCC(O)CO)cc1)c1ccc(OCC(O)CCl)cc1 (stereo not drawn) [EPI-001, reference compound]
AR^v567es
  suppression of constitutive activation of AR^v567es in PSA-Luc reporter assay: half
AR-v7
  inhibition of constitutive activation of AR-v7 (PSA-luc): inhibit; also recorded: active
AR-v7 in LNCaP cells
  activity in LNCaP cells with forced expression of AR-v7 (PSA-luc): remain active
[10]
  activity against constitutive activation of endogenous AR-Vs in 22Rv1 cells (PSA-luc): active
